Test results published in PMC3419223, “Transient Receptor Potential Ankyrin 1 Channel Localized to Non-Neuronal Airway Cells Promotes Non-Neurogenic Inflammation” (PLoS ONE, 2012).

How the values were obtained:
[1] = tested on: C57BL/6 mouse trachea and bronchi; assay: Plasma protein extravasation (Evans blue dye) after intratracheal instillation; type: in vivo; conditions: C57BL/6 mice
Experimental: (§1) To defunctionalize/desensitize TRPV1 expressing primary sensory neurons, resiniferatoxin (RTX) was administered to C57BL/6 mice, as previously described, [40]. Briefly, mice were treated subcutaneously (s.c.) with a single injection of RTX (50 µg/kg) or its vehicle (10% ethanol and 10% tween 80 in isotonic saline) into the scruff of the neck under a light ether anesthesia to avoid unnecessary pain. Experiments were carried out 7 days after RTX treatment when responses to both TRPV1 and TRPA1 agonists in the treated mice were abolished, [40].
Anesthetized (sodium pentobarbital, 50 mg/kg i.p.) C57BL/6 mice received Evans blue dye (30 mg/kg i.v.), 1 min before intratracheal (i.t) instillation (30 µl) of acrolein (5 mM), capsaicin (100 µM), SP (25 nM), CSE (1 OD) or their vehicles (isotonic saline, 1% ethanol in isotonic saline and isotonic saline). […] The tachykinin NK1 receptor antagonist, L-733,060 (2 µmol/kg i.v.; Tocris) or its vehicle were administered 15 min before the stimulus. The TRPV1 selective antagonist, capsazepine, (30 mg/kg i.p.) or its vehicle (2.5% DMSO in isotonic saline) and intragastric (i.g.) TRPA1 selective antagonist, HC-030031 (300 mg/kg i.g.) or its vehicle were administered 30 and 60 min before the stimulus, respectively. In another set of experiments ACR (5 mM, i.t.), or its vehicle, has been administered in C57BL/6 mice desensitized to RTX (50 µg/kg; s.c.). Animals were euthanized 15 min after treatment and transcardially perfused with 0.9% isotonic saline solution. The extravasated dye was extracted from mouse trachea and bronchi by overnight incubation in formamide and assayed by spectrophotometry at 620 nm, as reported previously.

[2] = tested on: C57BL/6 mice, Trpa1+/+ or Trpa1-/- mice; assay: KC (CXCL-1) release in bronchoalveolar lavage fluid, ELISA; type: in vivo, mouse; conditions: C57BL/6 mice
Experimental: as §1
Trpa1^+/+ or Trpa1^−/− B6129P mice (5 per group) were exposed acutely to the cigarette smoke (CS) produced with commercial cigarettes (Marlboro Red, 12 mg of tar, 0.9 mg of nicotine each), by using a “nose-only” exposure unit. The smoke produced by cigarette burning was introduced into the exposure chamber (inner volume = 11.61 l) with the airflow generated by a mechanical ventilator (7025 Rodent Ventilator, Ugo Basile) at a rate of 250 ml/min [58]. A second mechanical ventilator was used to provide room air for dilution (1∶8) of the smoke stream. Mice were exposed to the smoke of 5 cigarettes per exposure period, twice daily, for 3 consecutive days, and sacrificed 24 hours later. Genotype-, age-, strain- and sex-matched control animals were exposed to air only in the same manner for the same duration of time. Anesthetized C57BL/6, and Trpa1^+/+ or Trpa1^−/− (C57BL/6) mice were intratracheally administered with (30 µl) acrolein (5 mM), capsaicin (100 µM), SP (25 nM) and CSE (1 OD) or their vehicles (isotonic saline, 1% ethanol in isotonic saline and isotonic saline) and sacrificed 24 hours later. The NK1 receptor antagonist, L-733,060 (2 µmol/kg i.v.; Tocris) or its vehicle (isotonic saline) were administered 15 min before the stimulus, and i.g. HC-030031 (300 mg/kg) or its vehicle (0.5% CMC in isotonic saline 0.9%) were administered 1 hour before the stimulus. In another set of experiments ACR (5 mM, i.t.), or its vehicle, has been administered in C57BL/6 mice desensitized to RTX (50 µg/kg; s.c.). Animals were sacrificed 24 hours after the last exposure/treatment with an overdose of anesthetic followed by exsanguination, and the lungs were lavaged using a cannula inserted into the trachea and instilling 1 ml of Hank's Buffer added with HEPES 10 mM and EDTA 10 mM three times. […] BAL were centrifuged at 200× g at 4°C for 10 min, and the cell-free supernatants were stored at −80°C for cytokine determination. Frozen cell-free BAL was analyzed for keratinocyte chemoattractant (CXCL-1/KC, the murine analogue of IL-8) release by using a commercial ELISA-assay (Invitrogen).

[3] = molecular target: T1, TRPA1 (Homo sapiens, UniProt O75762); assay: Calcium imaging (Fura-2) of TRPA1 agonist responses in human airway/lung cells; type: cell-based; conditions: for EC50: intracellular calcium response
T1 construct: cultured human airway cells, including fibroblasts, epithelial and smooth muscle cells express functional TRPA1 channels; endogenous in cells; host or cells: SAEC, NHLF, HBSMC (Lonza, primary); A549, IMR90 (ATCC)
T1 sequence (O75762 whole entry): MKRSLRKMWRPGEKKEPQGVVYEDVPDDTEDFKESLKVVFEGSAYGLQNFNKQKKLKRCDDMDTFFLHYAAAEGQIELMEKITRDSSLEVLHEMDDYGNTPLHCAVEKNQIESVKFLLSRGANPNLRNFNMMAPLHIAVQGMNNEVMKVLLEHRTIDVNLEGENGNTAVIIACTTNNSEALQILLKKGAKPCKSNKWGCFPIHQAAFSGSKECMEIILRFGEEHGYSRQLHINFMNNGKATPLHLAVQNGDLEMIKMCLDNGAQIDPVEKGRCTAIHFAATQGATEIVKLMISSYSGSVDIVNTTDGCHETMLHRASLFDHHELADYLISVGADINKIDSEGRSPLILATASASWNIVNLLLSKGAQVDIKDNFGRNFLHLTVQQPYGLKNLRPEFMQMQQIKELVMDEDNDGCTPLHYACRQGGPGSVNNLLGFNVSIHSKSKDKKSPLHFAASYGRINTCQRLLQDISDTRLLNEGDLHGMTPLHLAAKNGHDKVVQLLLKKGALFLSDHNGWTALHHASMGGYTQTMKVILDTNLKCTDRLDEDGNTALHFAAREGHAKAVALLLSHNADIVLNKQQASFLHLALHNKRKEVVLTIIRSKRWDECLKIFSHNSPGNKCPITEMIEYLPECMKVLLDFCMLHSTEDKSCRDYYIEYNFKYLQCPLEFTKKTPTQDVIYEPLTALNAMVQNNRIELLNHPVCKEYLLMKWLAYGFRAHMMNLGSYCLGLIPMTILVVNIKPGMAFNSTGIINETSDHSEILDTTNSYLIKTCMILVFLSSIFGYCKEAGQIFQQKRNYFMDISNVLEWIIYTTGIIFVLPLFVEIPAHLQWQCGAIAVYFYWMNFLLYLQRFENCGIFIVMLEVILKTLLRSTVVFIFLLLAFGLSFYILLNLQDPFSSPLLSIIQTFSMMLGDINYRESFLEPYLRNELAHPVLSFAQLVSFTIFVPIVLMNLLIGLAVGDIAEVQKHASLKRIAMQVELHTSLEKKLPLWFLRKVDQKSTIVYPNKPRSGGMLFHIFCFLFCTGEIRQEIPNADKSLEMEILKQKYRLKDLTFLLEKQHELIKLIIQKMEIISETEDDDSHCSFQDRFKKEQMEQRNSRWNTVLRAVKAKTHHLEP
Experimental: Human small airway epithelial cells (SAEC), normal human lung fibroblasts (NHLF) and human bronchial smooth muscle cells (HBSMC) were purchased from Lonza. Human alveolar type II epithelium-like adherent cell line (A549) and human lung embryonic fibroblast (IMR90) were purchased from American Type Culture Collection (Manassas, VA). SAEC and NHLF were cultured respectively in SAGM and FBM medium (Lonza) according to the manufacturer's instructions. IMR90 and HBSMC were cultured in DMEM supplemented with 10% FBS, 2 mM glutamine, 100 U penicillin and 100 µg/ml streptomycin (Sigma-Aldrich), and A549 were cultured in RPMI supplemented with 10% FBS, 2 mM glutamine, 100 U penicillin, 100 µg/ml streptomycin and 1 mM HEPES (Sigma-Aldrich). All cells were cultured in an atmosphere of 95% air and 5% CO2 at 37°C.
CSE was generated as previously reported. Briefly, aqueous CSE was obtained from the combustion of four cigarettes (Marlboro Red, 12 mg of tar, 0.9 mg of nicotine each) bubbled through 50 ml of buffer and subsequently filtered through a 0.2-µm pore filter (Millipore). To ensure reproducibility among different CSE batches, the absorbance (optical density; OD) measured at 320 nm was used as a measure of the “strength” of the extract. Dilutions were made with buffer to obtain the desired absorbance. The CSE was freshly prepared on the day of the experiment and used immediately after preparation.
(§2) For calcium fluorescence measurements, cells were incubated with 5 µM Fura-2AM ester (Alexis Biochemicals) for 40 minutes at 37°C. Intracellular calcium levels were measured and recorded with a dynamic image analysis system (Laboratory Automation 2.0; RC Software). Fluorescence was measured during excitation at 340 and 380 nm, and after correction for the individual background fluorescence signals, the ratio of the fluorescence at both excitation wavelengths (Ratio340/380) was monitored. Experiments were performed using buffer solution containing (in mM): 150 NaCl, 6 KCl, 1 MgCl2, 1.5 CaCl2, 10 glucose, 10 HEPES at pH 7.4. Cells were stimulated with cinnamaldehyde (0.1–3000 µM), acrolein (0.1–3000 µM), CSE (0.001–0.5 OD), capsaicin (1 µM) and the activating peptide (SLIGKV-NH2) of the human PAR-2 receptor (hPAR-2 AP; 100 µM), or their respective vehicles (0.3% DMSO,aqueous buffer or 1% ethanol). HC-030031 and AP18 vehicles (used in all the in vitro experiments) were 3% DMSO and 1% DMSO, respectively. Results are expressed as the increase of Ratio340/380 over the baseline normalized to the maximum effect induced by ionomycin (5 µM) added at the end of the experiment.

[4] = molecular target: T2, PAR-2 receptor (Homo sapiens, UniProt P55085); assay: Calcium imaging, response to the PAR-2 activating peptide (selectivity control); type: cell-based; conditions: PAR-2 AP 100 µM; antagonist 10 µM
T2 construct: endogenous in cells
T2 sequence (P55085 26-397): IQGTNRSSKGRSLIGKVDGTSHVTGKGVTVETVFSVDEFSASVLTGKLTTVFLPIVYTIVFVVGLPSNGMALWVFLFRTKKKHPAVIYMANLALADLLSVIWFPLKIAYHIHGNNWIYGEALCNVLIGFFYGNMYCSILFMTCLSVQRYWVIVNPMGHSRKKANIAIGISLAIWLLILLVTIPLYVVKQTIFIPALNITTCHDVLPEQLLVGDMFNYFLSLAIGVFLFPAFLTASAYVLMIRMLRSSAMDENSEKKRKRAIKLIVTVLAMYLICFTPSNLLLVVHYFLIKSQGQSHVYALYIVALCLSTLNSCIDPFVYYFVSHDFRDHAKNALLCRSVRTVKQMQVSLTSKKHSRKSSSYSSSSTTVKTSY
Experimental: as §2

[5] = tested on: IL-8 release from SAEC, NHLF and HBSMC; assay: IL-8 release from human airway/lung cells in primary culture, ELISA; type: cell-based
Experimental: For IL-8 ELISA assays, HBSMC, SAEC, and NHLF were seeded in complete culture medium in 48-well plates, grown to ∼80–90% confluence, and incubated overnight in serum-free medium before treatments. All the treatments were performed in serum free medium. Cells were pretreated with the selective TRPA1 antagonists, HC-030031 and AP18, or their vehicles, for 30–60 min before treatment with freshly prepared acrolein, CSE, TNF-α and IL-1β for 18 hours at 37°C with 5% CO2. Subsequently, supernatants were collected and stored at −80°C for ELISA assay. Human IL-8 was measured using a paired antibody quantitative ELISA kit (Invitrogen) (detection limit: 5 pg/ml). The assays were performed according to the manufacturer's instructions. Vitality assay method (MTT reduction assay) is available online as (Text S1).

[6] = tested on: TRPV1; assay: Calcium imaging, response to the TRPV1 agonist capsaicin in human airway/lung cells; type: cell-based; conditions: 1 µM; SAEC, A549, NHLF, IMR90 and HBSMC; data not shown
[7] = RTX 50 µg/kg s.c., 7 days before, ACR 5 mM i.t.
[8] = i.t. 30 µl, acrolein 5 mM, CSE 1 OD, capsaicin 100 µM, SP 25 nM

C=C(C)[C@]12C[C@@H](C)[C@@]34O[C@](Cc5ccccc5)(O[C@@H]1[C@@H]3C=C(COC(=O)Cc1ccc(O)c(OC)c1)C[C@]1(O)C(=O)C(C)=C[C@@H]41)O2 [RTX, resiniferatoxin]
acrolein-induced PPE after desensitization [1, 7]: completely abolished
acrolein-induced increase in KC in BAL fluid after desensitization [2, 7]: remained unchanged

CC(C)c1ccc(NC(=O)Cn2cnc3c2c(=O)n(C)c(=O)n3C)cc1 [HC-030031]
effect of antagonist on calcium response evoked by CNM, ACR or CSE ([3]; A549 and IMR90, antagonist 10 µM): abolished
effect of antagonist on calcium responses to CNM, ACR and CSE ([3]; SAEC, NHLF, HBSMC, antagonist 10 µM): prevented
effect of antagonist on calcium response to the PAR-2 activating peptide [4]: did not affect
effect on acrolein (5 mM, i.t.)- and CSE (1 OD, i.t.)-evoked increase in PPE ([1]; L-733,060 2 µmol/kg i.v., CPZ 30 mg/kg i.p., HC 300 mg/kg i.g.): prevent
effect of pretreatment on KC release evoked by acrolein or CSE ([2]; HC-030031 300 mg/kg i.g., L-733,060 2 µmol/kg i.v.): significantly reduced
effect of antagonist on CSE-evoked IL-8 release ([5]; HC-030031 30 µM, AP18 10 µM): reduced
effect of antagonist on IL-8 release induced by IL-1β or TNF-α ([5]; HC-030031 30 µM, AP18 10 µM): not affected
effect of antagonist on acrolein-evoked IL-8 release ([5]; HC-030031 30 µM, AP18 10 µM): significantly reduced

COc1cc(CNC(=O)CCCC/C=C/C(C)C)ccc1O [capsaicin]
calcium response [6]: failed to produce any visible calcium response
plasma protein extravasation (PPE) after instillation into the tracheal lumen [1, 8]: increased PPE
KC in BAL 24 hours after intratracheal instillation [2, 8]: failed to increase

O=C/C=C/c1ccccc1 [Cinnamaldehyde, cinnamaldehyde]
EC50 ([3]; A549): 10.9 µM
EC50 ([3]; HBSMC): 6.7 µM
EC50 ([3]; IMR90): 2.7 µM
EC50 ([3]; NHLF): 6.6 µM
EC50 ([3]; SAEC): 46.3 µM
IL-8 release ([5]; overnight exposure): release IL-8
